Assay results from patent US11976069B2, “Inhibitors of histone deacetylase useful for the treatment or prevention of HIV infection” (Merck Sharp & Dohme LLC, priority 2019, dated 2024).
Where two headings read alike, the source gives them in different places.

Experiments:
Format in all cases: biochemical
HDAC3/SMRT heterodimer = target: T1, HDAC3/SMRT heterodimer (Homo sapiens, UniProt O15379); assay: HDAC3/SMRT inhibition, modified Fluor-de-Lys assay; settings: 3 h pre-incubation, 0.3 nM enzyme, 20 μM substrate BML-KI104, read-out: HDAC-3 IC50
T1 construct: FLAG (C)
Procedure: (§1) Human HDAC Enzyme Inhibitor FLUOR-DE-LYS Assay Materials
(§2) Recombinant human HDAC1, HDAC2, and HDAC3/SMRT heterodimer were prepared by Merck Research Laboratories. […] The eluted protein was then passed over an anti-HDAC1 immunoaffinity column to remove any complexes containing HDAC1. […]
(§3) The histone deacetylase activities of HDAC1, HDAC2, HDAC3, HDAC6, and HDAC8 were measured in modified Fluor-de-Lys assays in 384-well format. In this assay, HDAC enzymes are initially incubated with an ε-acetyl (or -trifluoroacetyl)-L-lysine-containing substrate with a C-terminal amide having aminomethylcoumarin as the amine component. HDACs cleave the ε-acetyl group, rendering the resulting product susceptible to AMC cleavage by trypsin. The released AMC is then detected by its fluorescence.
(§4) The HDAC 1, 2 assays employed buffer A, which contained 20 mM HEPES, pH 8.0, 1 mM MgCl2, 137 mM NaCl, 2.7 mM KCl, 0.05% BSA. The HDAC3/SMRT assay employed buffer B, consisting of 20 mM HEPES, pH 8.0, 1 mM MgCl2, 50 mM NaCl, 2.7 mM KCl, 0.05% BSA, 0.005% Tween 20, and 10 μM IP4. The HDAC6 assay employed buffer C, consisting of 20 mM HEPES, pH 8.0, 1 mM MgCl2, 137 mM NaCl, 2.7 mM KCl, 0.5 mM TCEP (Calbiochem) and 0.05% BSA. The HDAC8 assay employed buffer D, consisting of 20 mM HEPES, pH 8.0, 1 mM MgCl2, 100 mM NaCl, 20 mM KCl, 0.1% n-octyl-β-D-glucoside (Anatrace, Maumee, Ohio) and 0.05% BSA. All steps were performed at room temperature (23° C.). The assay was performed by pre-incubating serial dilutions of test compounds with the target HDAC prior to initiation with substrate. Each compound was titrated in a 10-point dose response, using a 1:3 fold dilution scheme, with 0.15 ul of solution added by ECHO555 to the plate, followed by the addition of 20 μl of the appropriate HDAC isoform diluted in appropriate assay buffer. […] Final conditions used for each assay were: 1. HDAC 1, 0.3 nM total enzyme, 20 μM substrate BML-KI104; 2. HDAC 2, 1.5 nM total enzyme, 40 μM substrate BML-KI104; 3. HDAC 3/SMRT, 0.3 nM total enzyme, 20 μM substrate BML-KI104; 4. HDAC 6, 1.3 nM total enzyme, 2.5 μM substrate BML-KI104; 5. HDAC 8, 1.3 nM total enzyme, 200 μM substrate BML-KI178; the final high dose of test compound was 30 μM. For potent compounds, 900 nM was used as the final high dose. The reactions were stopped and developed by addition of 30 ul of HDAC developer solution containing a saturating level of HDAC inhibitor as follows: 1.

HDAC2 = target: T2, HDAC2 (Homo sapiens, UniProt Q92769); assay: HDAC2 inhibition, modified Fluor-de-Lys assay; settings: 3 h pre-incubation, […] enzyme, 40 μM substrate BML-KI104; read-out: HDAC-2 IC50
T2 construct: Full length human HDAC2-FLAG was expressed in baculovirus infected Sf9 cells; FLAG (C); host or cells: baculovirus infected Sf9 cells
Procedure: as §1, §2, §3, §4

HDAC1 = target: T3, HDAC1 (Homo sapiens, UniProt Q13547); assay: HDAC1 inhibition, modified Fluor-de-Lys assay; settings: 3 h pre-incubation, 0.3 nM enzyme, 20 μM substrate BML-KI104; read-out: HDAC-1 IC50
T3 construct: FLAG (C)
Procedure: as §1, §2, §3, §4

HDAC8 = target: T4, HDAC8 (Homo sapiens, UniProt Q9BY41); assay: HDAC8 inhibition, modified Fluor-de-Lys assay; settings: 3 h pre-incubation, 200 μM substrate BML-KI178, read-out: HDAC-8 IC50
T4 construct: purchased Enzo Life Sciences (Farmingdale, N.Y.) BMIL-SE145-0100
T4 sequence (Q9BY41 1-377): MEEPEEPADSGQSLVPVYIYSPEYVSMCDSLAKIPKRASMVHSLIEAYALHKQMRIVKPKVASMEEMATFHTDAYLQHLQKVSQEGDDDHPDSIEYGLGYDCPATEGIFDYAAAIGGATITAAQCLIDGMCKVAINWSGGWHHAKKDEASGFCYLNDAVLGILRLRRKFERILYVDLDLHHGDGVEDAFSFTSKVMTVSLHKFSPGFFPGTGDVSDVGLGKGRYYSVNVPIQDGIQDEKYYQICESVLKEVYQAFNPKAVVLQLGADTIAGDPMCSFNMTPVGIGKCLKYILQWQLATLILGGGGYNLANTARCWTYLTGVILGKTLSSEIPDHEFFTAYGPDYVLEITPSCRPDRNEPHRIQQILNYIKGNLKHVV
Excerpt: as §1
Recombinant human HDAC8 (catalog number BMIL-SE145-0100) and HDAC10 (catalog number BML-SE559-0050) enzymes, HIDAC substrates BML-KI104 and BML-K1178, and HLDAC developer solutions BMIL-KI105 and BML-K1176 were purchased from Enzo Life Sciences (Farmingdale, N.Y.). Recombinant human HDAC5 and HDAC11 were purchased from BPS Bioscience (San Diego, Calif.)(catalog numbers 50045 and 50021). Substrate Boc-Lys(TFA)-AMC was obtained from Bachem (Bupendorf, Switzerland) (catalog number 1-1985). HDAC inhibitor suberoylanilide hydroxamic acid (SAHA) was obtained from Indofine (Hillsborough Township, N.J.) and trichostatin A (TSA) was obtained from Sigma-Aldrich (St. Louis, Mo.). […] HEPES pH 8.0 was obtained from Boston BioProducts (Ashland, Mass.), Tween-20 from Fisher Scientific (Hampton, N.H.) (catalog number BP337), TCEP from Calbiochem and 7.5% bovine serum albumin (BSA) from Life Technologies (Carlsbad, Calif.) (catalog number 15260037). 384-well, black assay plates were obtained from Corning (Corning, N.Y.) (catalog number 3575).
as §3, §4

T3 sequence (Q13547 whole entry): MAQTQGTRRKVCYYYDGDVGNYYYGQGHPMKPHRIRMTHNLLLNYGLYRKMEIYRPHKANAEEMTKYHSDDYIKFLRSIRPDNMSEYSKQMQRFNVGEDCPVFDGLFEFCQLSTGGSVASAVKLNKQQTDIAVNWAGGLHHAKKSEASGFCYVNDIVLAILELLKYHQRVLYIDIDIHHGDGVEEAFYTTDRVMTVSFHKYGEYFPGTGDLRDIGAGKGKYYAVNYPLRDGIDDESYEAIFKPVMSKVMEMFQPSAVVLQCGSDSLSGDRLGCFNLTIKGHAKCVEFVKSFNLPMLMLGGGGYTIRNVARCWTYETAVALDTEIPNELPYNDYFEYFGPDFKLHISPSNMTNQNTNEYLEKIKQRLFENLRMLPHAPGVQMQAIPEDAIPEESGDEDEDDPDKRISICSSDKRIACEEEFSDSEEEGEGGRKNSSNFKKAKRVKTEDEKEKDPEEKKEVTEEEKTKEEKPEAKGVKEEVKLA
T2 sequence (Q92769 whole entry): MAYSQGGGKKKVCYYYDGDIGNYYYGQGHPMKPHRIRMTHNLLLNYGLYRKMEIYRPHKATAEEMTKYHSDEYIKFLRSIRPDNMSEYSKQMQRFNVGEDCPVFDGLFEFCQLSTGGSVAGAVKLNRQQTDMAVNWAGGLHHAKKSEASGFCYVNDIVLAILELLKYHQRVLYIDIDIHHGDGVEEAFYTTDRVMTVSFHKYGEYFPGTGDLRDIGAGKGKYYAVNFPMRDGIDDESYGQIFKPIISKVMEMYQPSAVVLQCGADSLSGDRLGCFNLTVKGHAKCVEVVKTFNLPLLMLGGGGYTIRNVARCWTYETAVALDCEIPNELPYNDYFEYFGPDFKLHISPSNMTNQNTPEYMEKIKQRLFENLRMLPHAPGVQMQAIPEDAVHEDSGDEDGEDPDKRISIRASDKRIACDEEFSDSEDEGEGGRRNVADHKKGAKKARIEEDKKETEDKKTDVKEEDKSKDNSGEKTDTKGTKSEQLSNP
T1 sequence (O15379 whole entry): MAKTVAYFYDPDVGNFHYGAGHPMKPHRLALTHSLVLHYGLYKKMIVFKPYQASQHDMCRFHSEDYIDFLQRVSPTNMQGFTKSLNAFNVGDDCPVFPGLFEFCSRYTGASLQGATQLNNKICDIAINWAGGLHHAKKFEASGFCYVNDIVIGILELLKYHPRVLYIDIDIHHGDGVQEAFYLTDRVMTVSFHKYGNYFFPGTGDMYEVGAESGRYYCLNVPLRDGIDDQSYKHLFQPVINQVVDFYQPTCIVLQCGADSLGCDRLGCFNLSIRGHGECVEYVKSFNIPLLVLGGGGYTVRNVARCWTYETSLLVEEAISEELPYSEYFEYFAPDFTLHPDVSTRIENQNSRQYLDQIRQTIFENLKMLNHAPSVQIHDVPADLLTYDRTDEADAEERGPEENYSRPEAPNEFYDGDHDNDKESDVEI
T1 sequence (Q9Y618 1-899 partner limits assumed): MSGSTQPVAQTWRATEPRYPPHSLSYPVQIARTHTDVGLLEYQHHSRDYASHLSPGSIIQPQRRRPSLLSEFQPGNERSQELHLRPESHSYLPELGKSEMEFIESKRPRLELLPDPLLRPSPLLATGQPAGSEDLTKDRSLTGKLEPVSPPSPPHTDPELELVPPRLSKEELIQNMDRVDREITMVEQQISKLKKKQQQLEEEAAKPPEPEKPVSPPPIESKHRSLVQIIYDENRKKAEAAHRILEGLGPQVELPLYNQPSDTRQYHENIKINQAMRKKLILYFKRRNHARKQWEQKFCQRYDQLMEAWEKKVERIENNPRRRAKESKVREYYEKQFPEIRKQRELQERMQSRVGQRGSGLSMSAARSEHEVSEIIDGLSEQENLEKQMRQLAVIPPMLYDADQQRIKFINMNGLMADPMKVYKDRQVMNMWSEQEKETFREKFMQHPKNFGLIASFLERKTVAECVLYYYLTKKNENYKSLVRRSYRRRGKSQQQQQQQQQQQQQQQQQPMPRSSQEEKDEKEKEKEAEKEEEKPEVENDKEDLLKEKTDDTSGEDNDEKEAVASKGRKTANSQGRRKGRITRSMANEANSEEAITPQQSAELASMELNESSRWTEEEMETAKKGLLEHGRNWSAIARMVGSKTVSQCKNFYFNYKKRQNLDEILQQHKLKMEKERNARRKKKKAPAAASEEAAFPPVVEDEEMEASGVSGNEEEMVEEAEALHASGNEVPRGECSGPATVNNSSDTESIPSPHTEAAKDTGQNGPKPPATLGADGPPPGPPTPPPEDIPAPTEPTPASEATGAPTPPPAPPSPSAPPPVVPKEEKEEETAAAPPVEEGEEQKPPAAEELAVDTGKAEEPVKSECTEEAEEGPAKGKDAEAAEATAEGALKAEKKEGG

Compound	IC50 (HDAC3/SMRT heterodimer)	IC50 (HDAC2)	IC50 (HDAC1)	IC50 (HDAC8; […] enzyme)	IC50 (HDAC8; 1.3 nM enzyme)
CCC(=O)CCCCC[C@@H]1NC(=O)[C@H]2CC23CCN(CCCCCCCCn2ccc4cc(c(OC)cc4c2=O)-c2cnc1[nH]2)CC3 [Compound 5, (1^1S,4S)-6^7-methoxy-4-(6-oxooctyl)-6^1,6^2-dihydro-5^1H-3-aza-6(6,2)-isoquinolina-15(4,1)-piperidina-5(2,5)-imidazola-1(1,2)-cyclopropanapentadecaphane-6^1,2-dione]	0.13 nM	0.31 nM	0.11 nM		
CCC(=O)CCCCCC1NC(=O)C2CC2N2CCC(CCCCCn3c(=O)ccc4cc(ccc43)-c3cnc1o3)CC2 [Compound 7, (11S,4S)-4-(6-oxooctyl)-61,62-dihydro-3-aza-5(2,5)-oxazola-6(6,1)-quinolina-12(4,1)-piperidina-1(1,2)-cyclopropanadodecaphane-62,2-dione]	57 nM	260 nM	16 nM	> 900 nM	
CCC(=O)CCCCC[C@@H]1NC(=O)[C@H]2CC23CCN(CCCOCCCn2ccc4cc(ccc4c2=O)-c2cnc1[nH]2)CC3 [Compound 12, (3S,6S)-6-(6-oxooctyl)-22-oxa-5,8,18,26,33-pentaazahexacyclo[24.2.2.1˜7,10˜0.1˜11,15˜0.1˜14,18˜0.0˜1,3˜]tritriaconta-7,9,11(32),12,14,16-hexaene-4,31-dione]	0.32 nM	8.5 nM	0.33 nM	808 nM	
CCC(=O)CCCCC[C@H](NC(=O)[C@H]1CC12CCN(CC)CC2)c1[nH]c2nc1C(=O)NCCC/C=C\c1cccc-2c1 [Compound 14, (1S)-6-ethyl-N-{(1S)-7-oxo-1-[(11Z)-6-oxo-3,7,18-triazatricyclo[11.3.1.1~2,5~]octadeca-1(17),2(18),4,11,13,15-hexaen-4-yl]nonyl}-6-azaspiro[2.5]octane-1-carboxamide]	113 nM	572 nM	133 nM		> 900 nM
CCC(=O)CCCCC[C@H](NC(=O)[C@H]1CC12CCN(CC)CC2)c1[nH]c2nc1C(=O)NCCC/C=C/c1cccc-2c1 [Compound 15, (1S)-6-ethyl-N-{(1S)-7-oxo-1-[(11E)-6-oxo-3,7,18-triazatricyclo[11.3.1.1~2,5~]octadeca-1(17),2(18),4,11,13,15-hexaen-4-yl]nonyl}-6-azaspiro[2.5]octane-1-carboxamide]	18 nM	223 nM	21 nM		> 900 nM
(11S,4S)-4-(6-oxooctyl)-61,62-dihydro-3-aza-5(2,5)-oxazola-6(6,1)-quinolina-12(4,1)-piperidina-1(1,2)-cyclopropanadodecaphane-62,2-dione [Compound 8]	130 nM	287 nM	42 nM	> 900 nM	
